Experimental findings from patent US20210046143A1, “METHOD FOR TREATMENT OF THE HUMAN BODY BY THERAPY BY ADMINISTERING A COMPOSITION COMPRISING A PLANT EXTRACT OF THE SPECIE HEDYCHIUM CORONARIUM” (Societe D'exploitation De Produits Pour Les Industries …, priority 2016, published 2021) are described below.

For one experiment, the system named is IL-8. In words: IL-8 release by human skin explants, pollution model (BaP), ELISA. The class given is cell-based. The note with it: PMA 1 μg/ml systemic, 24 h, without pollution. Here is the method: b)—The product was systemically applied for 24 hours, on human skin explants (diameter of 8 mm), provided by Biopredic™ International (Rennes), which derived from mammary plastic surgery (person);
c)—The product was then applied again during pollution, for another 24 hours. Said pollution was induced in this model by application of an environmental pollutant, benzo(a)pyrene (3,4-benzopyrene/BaP) as systemic treatment, i.e. in the culture medium. This pollutant induces IL-8 release (SEPhRA results).
a)—A 2% (DE) HCR extract is diluted in the culture medium to obtain a 0.1% (DE) HCR extract, which is used as the test compound.
b)—Said HCR extract was systemically applied on the skin explants as a twenty-four hours pre-treatment. […]
e)—In order to validate the IL-8 titration, an additional condition was evaluated, i.e. stimulation with a reference pro-inflammatory molecule PMA (Phorbol 12-myristate 13-acetate, Sigma P8139), at 1 μg/ml. […]
d)—The inflammatory cytokine IL-8 was then measured out with a commercial kit from Bio-Techne/R&Dsystems (D8000C), which is an ELISA method. […] Titration raw data were obtained by measuring the absorbance or the optical density (OD) at 450 nm wavelength, with 570 nm as a reference.
e)—The concentrations of IL-8 measured in the samples were determined by using a concentration range of an IL-8 standard. […]

The subject of experiment [1] is murine B16 melanocytes (B16-F0 line). In words: Melanin titration in B16 melanocytes (melanogenesis). The note with it: Mus musculus, B16F0; kojic acid 1 mM; read-out: Inhibition of the melanin release in the culture medium. The class given is cell-based. The method, then:
• 1)—Background Information The aim of this study is to evaluate the effects of HCR extracts on melanogenesis in an in vitro model of murine B16 melanocytes. Cells used in this study were murine melanocytes (B16-F0 line, LGC standards, ATCC-CRL-6322) extracted from murine skin. This cells lines synthesizes a great quantity of melanin which is released in the culture media (so called supernatants), so a titration by spectrophotometry is easy to achieve. These melanocytes were cultured as monolayers; the test compounds were applied during seventy two hours and the synthesized melanin was then released and measured out in the supernatants. A XTT assay was previously performed, to check the cells viability, in order to determine the concentrations to be tested, as described in Example 2. • 2)—Dose Determination (CytotoxicityNiability Check by XTT Assay) and Evaluated Test Compound
B16 melanocytes were seeded in 24-wells plates. […]
Cells were seeded into 24-wells plates (at a cell density of […], i.e. 31,250 B16/cm^2), in the same medium as previously described, one day before treatment (incubation at 37° C./5% CO2). […] After 48 or 72 hours of treatment, the supernatants were homogenized and aliquots were transferred to 96-well plates for spectrophotometry reading at 492 nm wavelength (reading in duplicate). […]

A value given as a limit tells only on which side of the number the result lay.

With `CCCCCCCCCCCCCC(=O)O[C@@H]1[C@@H](C)[C@@]2(O)[C@@H](C=C(CO)C[C@]3(O)C(=O)C(C)=C[C@@H]23)[C@@H]2C(C)(C)[C@]12OC(C)=O` [PMA, Phorbol 12-myristate 13-acetate], the “IL-8 release, change compared to untreated/unpolluted control” value with IL-8 is reported as “+224%”.

As to `O=c1cc(CO)occ1O` [kojic acid], the inhibition at 1000 µM in experiment [1] was greater than 90%.
